Patent US8778342B2, “Antibody therapy” (Immunomedics, Inc., priority 2002, dated 2014)
Entries after “also recorded” stand apart in the source; their conditions may differ.

Legend:
[1] = test system: TT (human medullary thyroid) tumor cells; format: in vivo; conditions: DTIC 75 μg/dose days 2, 3, 4, hMN-14 100 μg/dose from day 2; for mice with no palpable tumor at 7 weeks: 10 mice/group
[2] = test system: TT MTC xenografts; experiment: Chemotherapy of TT MTC xenografts in nude mice; format: in vivo, human; conditions: for Mean survival time: untreated control 4 weeks; for growth inhibition of TT xenografts, drug given individually: doses of FIG. 3
[3] = test system: GW-39 human colorectal tumors; experiment: Survival in GW-39 intrapulmonary micrometastasis model in nude mice; conditions: for increase of median survival time: FIG. 18, single agent versus untreated
[4] = test system: TT tumors; experiment: Naked anti-CEA MAb alone on growth of TT tumors in nude mice; conditions: for tumors less than 0.5 cm^3: at day-37, 0.5 mg/mouse weekly x4, untreated 40%
[5] = biological target: T1, CEA (Homo sapiens, UniProt P06731); conditions: Hansen et al., Cancer 71:3478 (1993); cited from earlier work
T1 sequence (P06731 35-676): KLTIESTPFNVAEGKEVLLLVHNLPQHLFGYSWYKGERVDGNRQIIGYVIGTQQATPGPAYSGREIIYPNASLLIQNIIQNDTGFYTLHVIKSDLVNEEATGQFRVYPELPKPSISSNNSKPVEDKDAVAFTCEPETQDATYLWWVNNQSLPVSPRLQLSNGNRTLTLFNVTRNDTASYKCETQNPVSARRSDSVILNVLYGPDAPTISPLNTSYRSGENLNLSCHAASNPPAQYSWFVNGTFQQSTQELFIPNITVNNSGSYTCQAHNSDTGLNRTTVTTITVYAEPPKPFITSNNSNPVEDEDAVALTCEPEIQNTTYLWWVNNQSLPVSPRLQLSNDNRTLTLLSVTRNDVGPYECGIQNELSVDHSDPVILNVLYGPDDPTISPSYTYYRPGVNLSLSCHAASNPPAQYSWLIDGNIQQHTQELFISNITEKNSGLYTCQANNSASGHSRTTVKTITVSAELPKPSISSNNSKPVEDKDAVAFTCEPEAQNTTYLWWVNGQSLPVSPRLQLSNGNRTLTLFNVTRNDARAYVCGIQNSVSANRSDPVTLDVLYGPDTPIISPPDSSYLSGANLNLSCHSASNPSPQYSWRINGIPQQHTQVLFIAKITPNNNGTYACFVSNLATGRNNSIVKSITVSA

[6] = biological target: T2, normal cross reactive antigen, NCA (Homo sapiens, UniProt P40199); conditions: Hansen et al., Cancer 71:3478 (1993); cited from earlier work
T2 sequence (P40199 35-320): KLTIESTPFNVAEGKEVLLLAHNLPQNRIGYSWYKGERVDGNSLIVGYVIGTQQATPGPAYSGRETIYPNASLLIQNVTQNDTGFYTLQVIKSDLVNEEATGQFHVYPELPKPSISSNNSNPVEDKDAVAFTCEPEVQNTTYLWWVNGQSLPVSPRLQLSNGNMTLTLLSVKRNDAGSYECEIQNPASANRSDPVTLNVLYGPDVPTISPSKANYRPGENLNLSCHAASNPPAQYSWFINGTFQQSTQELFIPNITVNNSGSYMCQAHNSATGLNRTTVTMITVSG

[7] = test system: TT cells; experiment: Flow cytometry reactivity with TT cells
[8] = test system: meconium antigen; conditions: Hansen et al., Cancer 71:3478 (1993); cited from earlier work
[9] = FIG. 16 advanced colon cancer model, single agents

CN(C)/N=N/c1[nH]cnc1C(N)=O [DTIC, dacarbazine, reference compound]
Mean tumor volumes at 7 weeks [1]: 0.284 ± 0.197 cm^3 | mice with no palpable tumor at 7 weeks [1]: 1/10 | Mean survival time [2]: 11 weeks

CCc1c2c(nc3ccc(OC(=O)N4CCC(N5CCCCC5)CC4)cc13)-c1cc3c(c(=O)n1C2)COC(=O)[C@]3(O)CC [CPT-11, irinotecan]
median survival time ([3]; 10% GW-39 cell suspension, treatment from day 0, CPT-11 10% MTD (80 μg/d x 5 days), hMN14 100 μg/d, untreated 56 days): 63 days | median survival ([3]; FIG. 16 advanced colon cancer model, hMN-14 100 μg/day from day 0, CPT-11 60 μg/day over 5 days): 63 days | effect on survival [3, 9]: only a modest effect | median survival time ([3]; FIG. 17 reduced tumor burden model, 5% tumor cell suspension, dosages of Example 14): 70 days | increase of median survival time ([3]; 5% tumor cell suspension): 76% | median survival ([3]; pretreatment study, CPT-11 on day 0, alone or co-treatment with hMN-14, untreated 35 days): 63 days | median survival ([3]; pretreatment study, CPT-11 on day 3, alone or after 3-day pretreatment with hMN-14, untreated 35 days): 70 days

hMN-14: humanized (CDR-grafted) Class III anti-CEA monoclonal antibody MN-14, naked
Mean tumor volumes at 7 weeks [1]: 0.899±0.545 cm^3 | mice with no palpable tumor at 7 weeks [1]: 0/10 | delay / inhibition of tumor growth ([1]; nude mice): Significant delays in tumor growth; also recorded: significant effect on inhibiting tumor growth | effect on survival [3, 9]: No effect | effect on survival ([3]; FIG. 17 reduced tumor burden model, 5% tumor cell suspension): no apparent effect | increase of median survival time ([3]; 5% tumor cell suspension): 21% | efficacy on high (interferon-gamma induced) versus low CEA-expressing tumor cells ([3]; FIG. 21): improved efficacy | mean tumor sizes versus untreated animals ([4]; 0.5 mg single i.v. injection eleven days post tumor cell injection): no significant differences | tumor growth versus untreated group ([4]; 0.5 mg single i.v. injection on day-1 post tumor injection): significant growth delay | inhibition of tumor size compared to the untreated animals ([4]; 0.5 mg single i.v. injection one day post tumor cell injection, between day-32 and day-60): 64-70% | tumors less than 0.5 cm^3 [4]: 87%

O=P1(N(CCCl)CCCl)NCCCO1 (stereo not shown) [cyclophosphamide]
growth inhibition of TT xenografts, drug given individually [2]: significant growth inhibition | Log rank analysis of survival versus the untreated group ([2]; individual drugs): significant difference | Mean survival time [2]: 8 weeks

CC[C@]1(O)C[C@H]2CN(CCc3c([nH]c4ccccc34)[C@@](C(=O)OC)(c3cc4c(cc3OC)N(C=O)[C@H]3[C@@](O)(C(=O)OC)[C@H](OC(C)=O)[C@]5(CC)C=CCN6CC[C@]43[C@@H]65)C2)C1 [vincristine]
growth inhibition of TT xenografts, drug given individually [2]: not

COc1cccc2c1C(=O)c1c(O)c3c(c(O)c1C2=O)C[C@@](O)(C(=O)CO)C[C@@H]3O[C@H]1C[C@H](N)[C@H](O)[C@H](C)O1 [doxorubicin]
growth inhibition of TT xenografts, drug given individually [2]: significant growth inhibition

hLL2: negative control humanized MAb, anti-CD22 [reference compound]
tumors less than 0.5 cm^3 [4]: 29%

B1: murine MN-14: murine Class III anti-CEA MAb, reacting with CEA, unreactive with NCA and meconium antigen (antibody, listed as Mus sp., V domains shown)
VH: EVKLLESGGGLVQSGGSLKLSCAASGFDFTTYWMSWVRQAPGKGLEWIGEIHPDSSTINYAPSLKDKFIVSRDNAKNTLYLQMSKVRSEDTALYYCASLYFGFPWFAYWGQGTPVTVSA
VL: EIQLTQSHKMMSTSVGDRVSITCKASQDVGTSVAWYQQRPGQSPKLLIYWTSTRHTGVPDRFTGSVSGTDFTLTITNVQSEDLADYFCQQYSLYRSFGGGTKLEIK
modifications: constant regions
reactivity with CEA [5]: reacting with CEA | reactivity with NCA [6]: unreactive | reactivity with TT cells by flow cytometry [7]: react with TT cells | reactivity with meconium antigen [8]: unreactive
